From patent publication US11634447B2 (priority 2012, dated 2023)
Where “and” joins values, the source holds several entries; their conditions need not be identical. Equal entries are not always repeated.

What was measured:
FimH-CRD [1] = biological target: T1, FimH-CRD (Escherichia coli, UniProt P08191); experiment: Competitive binding assay by fluorescence polarization, assay 2 (compounds prepared by a robotics system, plates frozen and thawed); parameters: species or system E. coli; conditions: Assay 2 Kd, 5 nM Alexa 647 mannoside probe, 60 nM FimH-CRD, replicate values in one cell
T1 construct: The first 177 amino acids of the FimH protein are expressed as a fusion protein; thrombin tag (printed as 'fusion protein with thrombin') (cleaved yes); made in house; host or cells: bacteria (pET21b plasmid)
T1 sequence (P08191 22-177): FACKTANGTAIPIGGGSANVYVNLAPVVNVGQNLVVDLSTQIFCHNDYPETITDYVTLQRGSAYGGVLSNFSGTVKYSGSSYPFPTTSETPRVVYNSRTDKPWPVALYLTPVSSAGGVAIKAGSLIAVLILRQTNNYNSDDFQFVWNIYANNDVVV
Protocol: The first 177 amino acids of the FimH protein are expressed as a fusion protein with thrombin in a pET21b plasmid in bacteria. This FimH protein sequence contains the carbohydrate recognition domain (CRD) and shall be termed FimH-CRD. Following bacterial expression of the protein, the FimH-CRD protein is purified to homogeneity and the thrombin tag removed by protease cleavage. A competitive binding assay by fluorescence polarization is performed using 5 nM of the Alexa 647 mannoside probe and 60 nM of the FimH-CRD. The samples are assayed in a low volume 384 well microtiter plate in a final volume of 20 μl. The final assay buffer conditions are the following, 50 mM Tris-Cl, ph 7.0, 100 mM NaCl, 1 mM EDTA, 5 mM β-mercaptoethanol, 0.05% BSA and 2.5% DMSO. Two assays are performed for FimH, termed assay 1 or assay 2. The assay conditions are the same for both assays except the following: assay 1 has compounds prepared by manual dilution in a serial dilution factor with 12-point dose response while assay 2 has compounds prepared by a robotics system also through a serial dilution factor (12 point dose response) and initially prepared in duplicate in 384 well-Corning polypropylene round bottom plates. The assay 2 plates have compound which is then frozen and must be thawed prior to use. Initially the Alexa 647 probe and the FimH-CRD are added to the assay buffer and then 0.5 μl of test compound (assay 1 or 2) between 0.4 nM to 75 μM final concentration are added (12 point titration with 3-fold serial dilution). Control wells for the Alexa 647 probe are prepared with the same conditions except for the addition of the FimH-CRD protein. Plates are then incubated for 5 hrs at room temperature in the dark and under humid conditions to prevent drying. Plates are read using the SpectraMax Paradigm multi-mode plate reader and the appropriate fluorescent polarization detection cartridge (Alexa-647).
Alexa 647 mannoside probe is prepared using the similar procedure reported for FAM mannoside (Han, Z. et. al., 2010, J. Med. Chem., 53, 4779) and is described in the scheme below.
To a blue colored stirred solution of (2S,3S,4S,5S,6R)-2-(4-aminobutoxy)-6-(hydroxymethyl)tetrahydropyran-3,4,5-triol (2.21 mg, 0.009 mmol) and the (2E)-2-[(2E,4E)-5-[3,3-dimethyl-5-sulfonato-1-(3-sulfonatopropyl)indol-1-ium-2-yl]penta-2,4-dienylidene]-3-[6-(2,5-dioxopyrrolidin-1-yl)oxy-6-oxo-hexyl]-3-methyl-1-(3-sulfonatopropyl)indoline-5-sulfonate (Potassium Ion (3)) (4.9 mg, 0.0044 mmol) in DMF (44 μL) is added Et3N (5.4 mg, 7.0 μL, 0.053 mmol) at RT. The solution is stirred at room temperature over night, concentrated, dissolved in water and purified on 12 g C-18 silica gel cartridge on Isolera system using acetonitrile in water (0 to 40%, 10 CV) and followed by lyophilization to afford Alexa 647 mannoside probe (3.3 mg, 34%) as deep blue solid.
The Kd values of the compounds are determined from dose response curves using twelve concentrations per compound in duplicate. Curves are fitted to data points using Fluorescence Polarization competitive displacement analysis, and Kds are interpolated from the resulting curves using GraphPad Prism software, version […] (GraphPad software Inc., San Diego, Calif., USA).

[2] = tested on: bacterial strain LF82 binding to the glycoprotein BSA-(Mannose)3; experiment: Bacterial Binding Assay (BBA); format: cell-based, Escherichia coli; conditions: read-out: Bacterial Binding Assay IC50, LF82/Luciferase strain binding to BSA-(Man)3 coated plates, luminescence
How it was run: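 Inhibition of LF82/luciferase E. coli adhesion is read as luminescence after washing off unbound cells. Compound and bacteria (10^7 per well) are co-incubated 40-75 min at room temperature on wells coated with 0.5-2 μg/mL BSA-(Man)3, with BSA-only wells as background; IC50 values derived.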

FimH-CRD [3] = biological target: T1, FimH-CRD; experiment: Competitive binding assay by fluorescence polarization, assay 1 (compounds prepared by manual dilution); parameters: species or system E. coli
How it was run: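 FimH-CRD (residues 1-177, tag removed) at 60 nM competed against 5 nM Alexa 647 mannoside probe in 50 mM Tris-Cl pH 7.0, 100 mM NaCl, 1 mM EDTA, 5 mM β-mercaptoethanol, 0.05% BSA, 2.5% DMSO; 5 h, room temperature, dark. Compounds 0.4 nM-75 μM final, 12-point 3-fold, duplicate; Kd from fluorescence polarization displacement curves. Assay 1: manual dilution; assay 2: robotic dilution, plates frozen/thawed.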

[4] = Assay 1 Kd, 5 nM Alexa 647 mannoside probe, 60 nM FimH-CRD, replicate values in one cell
[5] = read-out: Assay 1 Kd, 5 nM Alexa 647 mannoside probe, 60 nM FimH-CRD, replicate values in one cell

Row | SMILES | Kd (FimH-CRD [1]) | IC50 [2] [nM] | Kd (FimH-CRD [3]; [4]) | Kd (FimH-CRD [3]; [5]) [nM]
1 | OC[C@H]1O[C@H](CCCc2ccc(CCC[C@H]3O[C@H](CO)[C@@H](O)[C@H](O)[C@@H]3O)cc2)[C@@H](O)[C@@H](O)[C@@H]1O [Compound 38, (2R,3S,4R,5S,6R)-2-(hydroxymethyl)-6-[3-[4-[3-[(2R,3S,4R,5S,6R)-3,4,5-trihydroxy-6-(hydroxymethyl)tetrahydropyran-2-yl]propyl]phenyl]propyl]tetrahydropyran-3,4,5-triol] | < 5 nM (2×) and 21 nM | 410 | < 5 nM | < 5
2 | OC[C@H]1O[C@H](c2ccc([C@H]3O[C@H](CO)[C@@H](O)[C@H](O)[C@@H]3O)cc2)[C@@H](O)[C@@H](O)[C@@H]1O [Compound 1, (2R,3S,4R,5S,6R)-2-(Hydroxymethyl)-6-[4-[(2R,3S,4R,5S,6R)-3,4,5-trihydroxy-6 (hydroxymethyl)tetrahydropyran-2-yl]phenyl]tetrahydropyran-3,4,5-triol] | 13 nM and 8 nM | 5270 | < 5 nM (2×) and 8 nM | –
3 | OC[C@H]1O[C@H](CCCC[C@H]2O[C@H](CO)[C@@H](O)[C@H](O)[C@@H]2O)[C@@H](O)[C@@H](O)[C@@H]1O [Compound 23] | 25 nM and < 5 nM and 14 nM | 5800 | 9 nM and 12 nM | –
4 | OC[C@H]1O[C@H](C/C=C/c2cccc(C#C[C@H]3O[C@H](CO)[C@@H](O)[C@H](O)[C@@H]3O)c2)[C@@H](O)[C@@H](O)[C@@H]1O [Compound 40, ((2R,3S,4R,5S,6R)-2-(Hydroxymethyl)-6-[(E)-3-[3-[2-[(2R,3S,4R,5S,6R)-3,4,5-trihydroxy-6-(hydroxymethyl)tetrahydropyran-2-yl]ethynyl]phenyl]allyl]tetrahydropyran-3,4,5-triol)] | 8 nM and 10 nM | 43 | < 5 nM and 18 nM | –
5 | O=C(Nc1ccc(Cc2ccc(NC(=O)c3cccc([C@H]4O[C@H](CO)[C@@H](O)[C@H](O)[C@@H]4O)c3)cc2)cc1)c1cccc([C@H]2O[C@H](CO)[C@@H](O)[C@H](O)[C@@H]2O)c1 [Compound 16] | 26 nM and < 5 nM and 9 nM | 1510 | < 5 nM and 6 nM | –
6 | OC[C@H]1O[C@H](c2cccc(OCCCOc3cccc([C@H]4O[C@H](CO)[C@@H](O)[C@H](O)[C@@H]4O)c3)c2)[C@@H](O)[C@@H](O)[C@@H]1O [Compound 44, ((2R,3S,4R,5S,6R)-2-(Hydroxymethyl)-6-[3-[3-[3-[(2R,3S,4R,5S,6R)-3,4,5-trihydroxy-6-(hydroxymethyl)tetrahydropyran-2-yl]phenoxy]propoxy]phenyl]tetrahydropyran-3,4,5-triol)] | 6 nM | 480 | < 5 nM | < 5
7 | OC[C@H]1O[C@H](C/C=C/c2cccc(/C=C/C[C@H]3O[C@H](CO)[C@@H](O)[C@H](O)[C@@H]3O)c2)[C@@H](O)[C@@H](O)[C@@H]1O [Compound 25, ((2R,3S,4R,5S,6R)-2-(Hydroxymethyl)-6-[(E)-3-[3-[(E)-3-[(2R,3S,4R,5S,6R)-3,4,5-trihydroxy-6-(hydroxymethyl)tetrahydropyran-2-yl]prop-1-enyl]phenyl]allyl]tetrahydropyran-3,4,5-triol)] | 21 nM and 10 nM and 12 nM | 1400 | < 5 nM | < 5
8 | OC[C@H]1O[C@H](CCc2ccc(CC[C@H]3O[C@H](CO)[C@@H](O)[C@H](O)[C@@H]3O)cc2)[C@@H](O)[C@@H](O)[C@@H]1O [Compound 22, ((2R,3S,4R,5S,6R)-2-(Hydroxymethyl)-6-[2-[4-[2-[(2R,3S,4R,5S,6R)-3,4,5-trihydroxy-6-(hydroxymethyl)tetrahydropyran-2-yl]ethyl]phenyl]ethyl]tetrahydropyran-3,4,5-triol)] | 14 nM and < 5 nM and 11 nM | 1600 | < 5 nM and 12 nM | –
9 | OC[C@H]1O[C@H](c2ccc(-c3ccc([C@H]4O[C@H](CO)[C@@H](O)[C@H](O)[C@@H]4O)cc3)cc2)[C@@H](O)[C@@H](O)[C@@H]1O [Compound 6, (2R,2 ,3S,3,4R,4,5S,5,6R,6)-6,6([1,1Biphenyl]-4,4diyl)bis(2-(hydroxymethyl)tetrahydro-2H-pyran-3,4,5-triol)] | < 5 nM and 23 nM | 95 | < 5 nM | < 5
10 | O=C(NCCCCCCCCNC(=O)c1cccc([C@H]2O[C@H](CO)[C@@H](O)[C@H](O)[C@@H]2O)c1)c1cccc([C@H]2O[C@H](CO)[C@@H](O)[C@H](O)[C@@H]2O)c1 [Compound 14, (R,R,S,R,S)-N,N′-(Octane-1,8-diyl)bis(3-((2R,3S,4R,5S,6R)-3,4,5-trihydroxy-6-(hydroxymethyl)tetrahydro-2H-pyran-2-yl)benzamide)] | 43 nM and 6 nM and 14 nM | 4100 | 11 nM and 13 nM | –
11 | OC[C@H]1O[C@H](CCc2cccc([C@H]3O[C@H](CO)[C@@H](O)[C@H](O)[C@@H]3O)c2)[C@@H](O)[C@@H](O)[C@@H]1O [Compound 37, ((2R,3S,4R,5S,6R)-2-(Hydroxymethyl)-6-[2-[3-[(2R,3S,4R,5S,6R)-3,4,5-trihydroxy-6-(hydroxymethyl)tetrahydropyran-2-yl]phenyl]ethyl]tetrahydropyran-3,4,5-triol)] | 18 nM and < 5 nM and 12 nM | 1650 | 7 nM | –
